Experiment [1] has as its target T1, Ras farnesyl transferase (Homo sapiens, UniProt P49354+P49356).
T1 construct: made in house
Briefly: Ras farnesyl transferase inhibiting activity (filter-binding, tritium-farnesylpyrophosphate, Ras-CVLS substrate). In kind it is biochemical. Conditions: recombinant Ras farnesyl transferase, 30 minutes at 37° C., read-out: Ftase IC50. Here is the method:
The enzyme reaction was performed in 50 μl of 50 mM Sodium HEPES buffer solution containing 25 mmol of potassium chloride. 25 mmol of magnesium chloride, 10 mmol of DTT and 50 μmol of zinc chloride. 1.5 μmol of Ras substrate protein, 0.15 μmol of tritium-farnesylpyrophosphate and 4.5 nmol of farnesyl transferase were used.
More specifically, in the initial step, farnesyl transferase was added to the above buffer solution, reaction was maintained for 30 minutes at 37° C. and then the reaction was stopped by adding 1 ml of ethanol solution containing 1M HCl. The formed precipitates were adsorbed to GF/B filter using Hopper harvestor(Hopper #225V) for filter-binding, washed with ethanol, and then radioactivity of the dried filter was measured using LKB β counter. Enzyme titer was measured in the unsaturated state of substrate where the concentrations of Ras substrate protein and farnesyl transferase have quantitative relationship. Enzyme inhibiting activity was measured using less than 5% of total reaction solution of the compound according to the present invention dissolved in dimethylsulfoxide(DMSO) solution as a reagent. Enzyme inhibiting activity was represented by percentage of the amount of the farnesyl incorporated with the reagent to that without the reagent.

Experiment [2] concerns intracellular Ras farnesyl transferase, Rat2 cell line. Briefly: Intracellular Ras farnesyl transferase inhibiting activity in transformed Rat2 cells (35S-methionine labelling, Y13-259 immunoprecipitation, SDS-PAGE). The experiment is classed as cell-based. Conditions: Rattus norvegicus; transformed Rat2 fibroblast cell line; concentration inhibiting 50% of farnesyl binding of Ras protein; read-out: Ftase CIC50. How it is done: In the present experiment, Rat2 cell line which expresses C-Harvey-Ras protein having transforming activity and Rat2 cell line(Korean patent application No. 97-14409) which is transformed with fused protein of H-Ras substituted with polybasic lysine domain at C-terminus of K-Ras were used. The experiment was performed by the modified Declue's method(Declue. J. E. et al., Cancer Research, 1991. 51, 712). Hereinafter, the experimental method will be described in more detail.
3×10^5 cells of transformed Rat2 fibroblast cell line were sprayed on 60 mm cell cultivation dish and cultivated for 48 hours in a cell incubator at 37° C. and after 50% or more of density was reached, it was treated with a reagent. The compound according to the present invention dissolved in dimethylsulfoxide(DMSO) was used as the reagent. 1% of dimethylsulfoxide was used in both control and experimental groups. After 4 hours from the treatment of the reagent, methionine labeled with 150 μCi of radioactive isotope, ^35S per 1 ml of medium, was added and after cultivating for 20 hours, the cells were washed with physiological saline water. The cells were lysed using 1 ml of cool cell lysis buffer solution(50 mM of Sodium Herpiss buffer solution containing 5 mmol of magnesium chloride. 1 mmol of DTT, 1% NP 40, 1 mmol of EDTA, 1 mmol of PMSF, 2 μmol of leupeptin, 2 μmol of pepstatin A and 2 μmol of antipain) and the supernatant was obtained by high-velocity centrifugation of 12,000 g×5 minutes. The amount of the labeled radioisotope of the supernatent was measured and standardized to obtain a quantitative result in immunoprecipitation reaction and then. Y13-259, monoclonal antiboby specifically binding to Ras protein(Furth, M. E. et al., J. Virol, 1982, 43, 294) was added and reacted for 15 hours at 4° C. Protein A bound to goat anti-murine Immunoglobulin antibody-agarose suspension was added to the solution and reacted for 1 hour at 4° C. and then, to remove unspecific binding product, immunoprecipitates were washed with buffer solution(50 mM Tris chloride buffer solution containing 50 mmol of sodium chloride, 0.5% of sodium dioxycolate, 0.5% of NP 40 and 0.1% of SDS). The precipitates were boiled in reagent buffer solution for electrophoresis and then, electrophoresis was performed using 13.5% of SDS polyacrylamide gel. After electrophoresis, the gel was fixed and dried. Then, the gel was exposed to X-ray film, developed and printed. From the result of the experiment, intensities of band of protein with and without farnesyl of Ras protein were measured, and the concentration of reagent inhibiting 50% of farnesyl binding was defined as CIC50, an intracellular Ras farnesyl transferase inhibiting activity.

The target of experiment [3] is T2, Geranylgeranyl transferase (Bos taurus, UniProt P29702+Q5EAD5).
T2 construct: Geranylgeranyl transferase was purified from bovine brain; from tissue; host or cells: bovine brain
Put plainly: Geranylgeranyl transferase inhibiting activity (geranylgeranyl pyrophosphate, Ras-CVIL substrate). The note with it: geranylgeranyl transferase purified from bovine brain, read-out: GGtase IC50. The experiment is classed as biochemical. Here is the method:
To evaluate the selective enzyme inhibiting activity of the compound according to the present invention, inhibiting activity on geranylgeranyl transferase was measured. Geranylgeranyl transferase was purified from bovine brain with the method modified from Schber's method(Schber et al., J. Biol. Chem. 1990, 265, 14701). and substantially the same experiment as that of farnesyl transferase was performed using geranylgeranyl pyrophosphate and Ras-CVIL substrate protein under the similar condition to farnesyl transferase reaction.

Among the data in patent US6384061B1, “Hydantoin compounds and methods related thereto” (LG Chemical Ltd., priority 2000, dated 2002) are IC50 values, retold here.

With `CC1(c2cccc3ccccc23)C(=O)N(CCCn2ccnc2)C(=O)N1C(=O)N1CCOCC1` (stereo not drawn) [Compound 65, 3-(3-imidazol-1-yl-propyl)-5methyl-1-(morpholine-4-carbonyl)-5-naphthalen-1-yl-imidazolidin-2,4-dione], the IC50 in experiment [1] is 4.5 µM; in experiment [2], less than 20 µM; in experiment [3], greater than 10 µM.
Turning to `CC1(c2cccc3ccccc23)C(=O)N(CCCn2ccnc2)C(=O)N1C(=O)Nc1cccc(C#N)c1` (stereo not drawn) [Compound 66, 3-(3-imidazol-1-yl-propyl)-5-methyl-5-naphthalen-1-yl-2,4-dioxo-imidazolidin-1-carboxylic acid (3-cyano-phenyl)-amide], the IC50 in experiment [1] is 0.2 µM; in experiment [2], less than 20 µM; in experiment [3] it was greater than 10 µM.
For `CC1(c2cccc3ccccc23)NC(=O)N(CCCc2cncn2Cc2ccc(C#N)cc2)C1=O` (stereo not drawn) [Compound 45, 4-{5-[3-(4-methyl-4-naphthalen-1-yl-2,5-dioxo-imidazolidin-1-yl)-propyl]-imidazol-1-ylmethyl}benzonitrile], the values for the IC50 in experiment [1], in experiment [2] and in experiment [3] were 5.5 µM, less than 20 µM and greater than 10 µM, respectively.
Turning to `CC1(c2cccc3ccccc23)C(=O)N(CCCn2ccnc2)C(=O)N1Cc1cccc(Cl)c1` (stereo not drawn) [Compound 19, 1-(3-chloro-benzyl)-3-(3-imidazol-1-yl-propyl)-5-methyl-5-naphthalen-1-yl-imidazolidin-2,4-dione], the IC50 in experiment [1] is 0.24 µM; in experiment [2], less than 20 µM; in experiment [3] it was greater than 10 µM.
As for `CC1(c2cccc3ccccc23)C(=O)N(CCCc2cncn2Cc2ccc(C#N)cc2)C(=O)N1Cc1ccccc1` (stereo not drawn) [Compound 53, 4-(5-{3-[3-benzyl-4-methyl-4-naphthalen-1-yl-2,5-dioxo-imidazolidin-1-yl]-propyl}-imidazol-1-ylmethyl)-benzonitrile], the IC50 in experiment [1] was 0.065 µM; in experiment [2], less than 20 µM; in experiment [3], greater than 10 µM.
On the same counts, the results for `CN1C(=O)N(CCCc2cncn2Cc2ccc(C#N)cc2)C(=O)C1(C)c1cccc2ccccc12` (stereo not drawn) [Compound 46, 4-{5-[3-(3-methyl-4-methyl-4-naphthalen-1-yl-2,5-dioxo-imidazolidin-1-yl)-propyl]-imidazol-1-ylmethyl}-benzonitrile] are 0.044 µM, less than 20 µM and greater than 10 µM.
Regarding `COC(=O)C(CCSC)NC(=O)CN1C(=O)N(CCCc2c[nH]cn2)C(=O)C1(C)c1cccc2ccccc12` (stereo not drawn) [Compound 1, 2-(2-{3-[3-(1H-imidazol-4-yl)-propyl]-5-methyl-5-naphthalen-1-yl-2,4-dioxo-imidazolidin-1-yl}-acetylamino)-4-methylsulfanyl-butyric acid methyl ester], the IC50 was 0.5 µM in experiment [1], 1 µM in experiment [2] and greater than 10 µM in experiment [3].
As to `COC(=O)c1ccc(CN2C(=O)N(CCCn3ccnc3)C(=O)C2(C)c2cccc3ccccc23)cc1` (stereo not drawn) [Compound 38, 4-[3-(3-imidazol-1-yl-propyl)-5-methyl-5-naphthalen-1-yl-2,4-dioxo-imidazolidin-1-ylmethyl]-benzoic acid methyl ester], the IC50 in experiment [1] was 0.25 µM; in experiment [2] it was less than 20 µM; in experiment [3], greater than 10 µM.
On to `COC(=O)C(CCSC)NC(=O)CN1C(=O)N(CCc2c[nH]cn2)C(=O)C1(C)c1cccc2ccccc12` (stereo not drawn) [Compound 3, 2-(2-{3-[2-(1H-imidazol-4-yl)-ethyl]-5-methyl-5-naphthalen-1-yl-2,4-dioxo-imidazolidin-1-yl}-acetylamino)-4-methylsulfanyl-butyric acid methyl ester], for which the IC50 in experiment [1] is 2.5 µM; in experiment [2], 5 µM; in experiment [3] it was greater than 10 µM.
Turning to `CC1(c2cccc3ccccc23)C(=O)N(CCCn2ccnc2)C(=O)N1Cc1ccc(Br)cc1` (stereo not drawn) [Compound 21, 1-(4-bromo-benzyl)-3-(3-imidazol-1-yl-propyl)-5-methyl-5-naphthalen-1-yl-imidazolidin-2,4-dione], the IC50 was 0.15 µM in experiment [1], less than 20 µM in experiment [2] and greater than 10 µM in experiment [3].
As to `CC1(c2cccc3ccccc23)C(=O)N(CCCn2ccnc2)C(=O)N1Cc1cccc(Oc2ccccc2)c1` (stereo not drawn) [Compound 25, 3-(3-imidazol-1-yl-propyl)-5-methyl-5-naphthalen-1-yl-1-(3-phenoxy-benzyl)-imidazolidin-2,4-dione], the IC50 in experiment [1] is 0.72 µM; in experiment [2], less than 20 µM; in experiment [3], greater than 10 µM.
On the same counts, the results for `CC1(c2cccc3ccccc23)C(=O)N(Cc2cncn2Cc2ccc(C#N)cc2)C(=O)N1Cc1cccc(C#N)c1` (stereo not drawn) [Compound 63] are 0.05 µM, less than 20 µM and greater than 10 µM.
With `CC1(c2cccc3ccccc23)NC(=O)N(Cc2cncn2Cc2ccc(C#N)cc2)C1=O` (stereo not drawn) [Compound 59, 4-[5-(4-methyl-4-naphthalen-1-yl-2,5-dioxo-imidazolidin-1-ylmethyl)-imidazol-1-ylmethyl]-benzonitrile], the IC50 was 0.44 µM in experiment [1], less than 20 µM in experiment [2] and greater than 10 µM in experiment [3].
`COCCNC(=O)c1ccc(CN2C(=O)N(CCCn3ccnc3)C(=O)C2(C)c2cccc3ccccc23)cc1` (stereo not drawn) [Compound 41, 4-[3-(3-imidazol-1-yl-propyl)-5-methyl-5-naphthalen-1-yl-2,4-dioxo-imidazolidin-1-ylmethyl]-N-(2-methoxy-ethyl)-benzamide]: the IC50 in experiment [1] was 0.53 µM; in experiment [2] it was less than 20 µM; in experiment [3], greater than 10 µM.
The corresponding values for `COC(=O)C(CCSC)NC(=O)CN1C(=O)N(Cc2cncn2Cc2ccc(C#N)cc2)C(=O)C1(C)c1cccc2ccccc12` (stereo not drawn) [Compound 7, 2-(2-{3-[3-(4-cyano-benzyl)-imidazol-4-yl-methyl]-5-methyl-5-naphthalen-1-yl-2,4-dioxo-imidazolidin-1-yl}-acetylamino)-4-methylsulfanyl-butyric acid methyl ester] are 0.18 µM, less than 20 µM and greater than 10 µM.
Regarding `CC1(c2cccc3ccccc23)C(=O)N(CCCn2ccnc2)C(=O)N1Cc1cccc(OC(F)(F)F)c1` (stereo not drawn) [Compound 23, 1-(3-trifluoromethoxy-benzyl)-3-(3-imidazol-1-yl-propyl)-5-methyl-5-naphthalen-1-yl-imidazolidin-2,4-dione], the IC50 in experiment [1] was 3 µM; in experiment [2], less than 20 µM; in experiment [3], greater than 10 µM.
As for `CCOC(=O)CN1C(=O)N(CCCc2cncn2Cc2ccc(Br)cc2)C(=O)C1(C)c1cccc2ccccc12` (stereo not drawn) [Compound 70, (3-{3-[3-(4-bromo-benzyl)-3H-imidazol-4-yl]-propyl}-5-methyl-5-naphthalen-1-yl-2,4-dioxo-imidazolidin-1-yl)-acetic acid ethyl ester], the figures for the IC50 in experiment [1], in experiment [2] and in experiment [3] were 5 µM, less than 20 µM and greater than 10 µM, respectively.
